Laboratory results as given in patent US20220323406A1, “METHODS AND COMPOSITIONS FOR DIFFERENTIATING STEM CELLS” (Massachusetts Institute of Technology, priority 2019, published 2022).

Columns and labels:
[1] = test system: ENR+CD organoids (ISC to Paneth cell differentiation); experiment: Primary screen: basal (non-stimulated) lysozyme secretion LYZ.NS, 2.5-D 384-well ENR+CD organoid differentiation; type: cell-based, mouse
Text: (§1) High-throughput screening.

[2] = test system: ENR+CD organoids (ISC to Paneth cell differentiation); experiment: Primary screen: CCh-stimulated lysozyme secretion LYZ.S, 2.5-D 384-well ENR+CD organoid differentiation; type: cell-based, mouse; conditions: primary screen
Text: as §1

[3] = test system: ENR+CD organoids (ISC to Paneth cell differentiation); experiment: Secondary (validation) screen: LYZ.NS basal lysozyme secretion, 2.5-D 384-well ENR+CD organoids; type: cell-based, mouse; conditions: 6-day ENR+CD, vs ENR+CD+DMSO
Description: (§2) Drugs were tested at a narrowed dose range around each treatment's identified optimal dose from the primary screen (4× below, 2× above and below).
as §1
(§3) Secondary lysozyme secretion assay screen. Confirmatory secondary screening with primary hits was performed using the above 384-well plate method. The screen was conducted with 4-plate replicates with a base media of ENR+CD. Media was supplemented with compound at day 0 and day 3 (n=8 well replicates per dose) at four different doses: two-fold above, two-fold below, and four-fold below the optimal final dose for each respective treatment. Additionally, each plate carried a large number of ENR+DMSO or ENR+CD+DMSO (vehicle) control wells (n=100 for ATP, and n=25 for LYZ.NS and LYZ.S) for robust normalization. ATP, non-stimulated lysozyme activity and CCh-stimulated lysozyme activity was again measured and the collected data was again processed in a custom R-script, per primary screen with slight modification. Values were log10 transformed, and a plate-wise FC was calculated for each well based on the median value of ENR+CD+DMSO (vehicle) control wells to normalize plate to plate variability.

[4] = test system: ENR+CD organoids (ISC to Paneth cell differentiation); experiment: Secondary (validation) screen: LYZ.S CCh-stimulated lysozyme secretion, 2.5-D 384-well ENR+CD organoids; type: cell-based, mouse; conditions: 6-day ENR+CD, vs ENR+CD+DMSO
Description: as §2, §1, §3

[5] = test system: ENR+CD organoids; experiment: Secondary (validation) screen: ATP (CTG) assay, 2.5-D 384-well ENR+CD organoids; type: cell-based, mouse; conditions: 6-day ENR+CD, vs ENR+CD+DMSO
Description: as §2, §1, §3

[6] = test system: ENR+CD organoids; experiment: Primary screen: ATP (CellTiter-Glo 3D, CTG) cell number/viability, 2.5-D 384-well ENR+CD organoids;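 further: compounds given at plating and again on day 3 over a 6-day differentiation from ENR+CV stem-cell-enriched precursors, ATP measured on day 6, plate median as control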
[7] = primary screen, dose 0.08 uM, standard z score
[8] = primary screen, dose 0.40 uM, standard z score
[9] = primary screen, dose 2.00 uM, standard z score
[10] = primary screen, dose 10.00 uM, standard z score
[11] = primary screen; dose 0.08 uM; FC vs plate median
[12] = primary screen; dose 0.40 uM; FC vs plate median
[13] = primary screen; dose 2.00 uM; FC vs plate median
[14] = primary screen; dose 10.00 uM; FC vs plate median
[15] = primary screen, standard z score, dose 0.08 uM
[16] = primary screen, standard z score, dose 0.40 uM
[17] = primary screen, standard z score, dose 2.00 uM
[18] = primary screen, standard z score, dose 10.00 uM

## CCc1cncnc1N1CCN(Cc2nc3ccc(C(F)(F)F)cc3[nH]2)CC1 [PF-4708671]
[1]; [7]
  Z.LYZ.NS: 0.654
[1]; [8]
  Z.LYZ.NS: 1.059
[1]; [9]
  Z.LYZ.NS: 1.721
[1]; [10]
  Z.LYZ.NS: 0.297
[1]; [11]
  Dose.FC.LYZ.NS: 0.075 log2 fold change
[1]; [12]
  Dose.FC.LYZ.NS: 0.122 log2 fold change
[1]; [13]
  Dose.FC.LYZ.NS: 0.198 log2 fold change
[1]; [14]
  Dose.FC.LYZ.NS: 0.034 log2 fold change
[2]; dose 0.08 uM, FC vs plate median
  Dose.FC.LYZ.S: 0.136 log2 fold change
[2]; dose 0.40 uM, FC vs plate median
  Dose.FC.LYZ.S: 0.172 log2 fold change
[2]; dose 2.00 uM, FC vs plate median
  Dose.FC.LYZ.S: 0.209 log2 fold change
[2]; dose 10.00 uM, FC vs plate median
  Dose.FC.LYZ.S: −0.024 log2 fold change
[3]; 0.50 uM
  Dose.FC.LYZ.NS: 0.005 log2 fold change
  Z.LYZ.NS: 0.039
  repSSMD.LYZ.NS: 0.058
[3]; 1.00 uM
  Dose.FC.LYZ.NS: −0.200 log2 fold change
  Z.LYZ.NS: −1.600
  repSSMD.LYZ.NS: −1.909
[3]; 2.00 uM
  Dose.FC.LYZ.NS: −0.221 log2 fold change
  Z.LYZ.NS: −1.764
  repSSMD.LYZ.NS: −2.529
[3]; 4.00 uM
  Dose.FC.LYZ.NS: 0.015 log2 fold change
  Z.LYZ.NS: 0.120
  repSSMD.LYZ.NS: 0.171
[4]; 0.50 uM
  Dose.FC.LYZ.S: −0.040 log2 fold change
  Z.LYZ.S: −0.305
  repSSMD.LYZ.S: −0.496
[4]; 1.00 uM
  Dose.FC.LYZ.S: −0.245 log2 fold change
  Z.LYZ.S: −1.879
  repSSMD.LYZ.S: −2.451
[4]; 2.00 uM
  Dose.FC.LYZ.S: −0.272 log2 fold change
  Z.LYZ.S: −2.088
  repSSMD.LYZ.S: −3.604
[4]; 4.00 uM
  Dose.FC.LYZ.S: −0.042 log2 fold change
  Z.LYZ.S: −0.320
  repSSMD.LYZ.S: −0.503
[5]; 0.50 uM
  Dose.FC.CTG: −0.049 log2 fold change
  Z.CTG: −0.443
  repSSMD.CTG: −0.324
[5]; 1.00 uM
  Dose.FC.CTG: −0.039 log2 fold change
  Z.CTG: −0.354
  repSSMD.CTG: −0.284
[5]; 2.00 uM
  Dose.FC.CTG: −0.076 log2 fold change
  Z.CTG: −0.684
  repSSMD.CTG: −0.558
[5]; 4.00 uM
  Dose.FC.CTG: 0.067 log2 fold change
  Z.CTG: 0.601
  repSSMD.CTG: 0.414
[6]; [7]
  Z.CTG: 0.623
[6]; [8]
  Z.CTG: 0.640
[6]; [9]
  Z.CTG: 0.721
[6]; [10]
  Z.CTG: −0.766
[6]; [11]
  Dose.FC.CTG: 0.261 log2 fold change
[6]; [12]
  Dose.FC.CTG: 0.268 log2 fold change
[6]; [13]
  Dose.FC.CTG: 0.302 log2 fold change
[6]; [14]
  Dose.FC.CTG: −0.321 log2 fold change

## NC1(Cc2ccc(Cl)cc2)CCN(c2ncnc3[nH]ccc23)CC1 [CCT128930]
[1]; primary screen, dose 0.08 uM
  Dose.FC.LYZ.NS: 0.323 log2 fold change
[1]; primary screen, dose 0.40 uM
  Dose.FC.LYZ.NS: −0.018 log2 fold change
[1]; primary screen, dose 2.00 uM
  Dose.FC.LYZ.NS: 0.073 log2 fold change
[1]; primary screen, dose 10.00 uM
  Dose.FC.LYZ.NS: −0.150 log2 fold change
[1]; [15]
  Z.LYZ.NS: 2.811
[1]; [16]
  Z.LYZ.NS: −0.154
[1]; [17]
  Z.LYZ.NS: 0.633
[1]; [18]
  Z.LYZ.NS: −1.307
[2]; dose 0.08 uM
  Dose.FC.LYZ.S: 0.266 log2 fold change
[2]; dose 0.40 uM
  Dose.FC.LYZ.S: −0.007 log2 fold change
[2]; dose 2.00 uM
  Dose.FC.LYZ.S: 0.053 log2 fold change
[2]; dose 10.00 uM
  Dose.FC.LYZ.S: −0.201 log2 fold change
[3]; 0.02 uM
  Dose.FC.LYZ.NS: −0.241 log2 fold change
  Z.LYZ.NS: −1.927
  repSSMD.LYZ.NS: −2.551
[3]; 0.04 uM
  Dose.FC.LYZ.NS: −0.020 log2 fold change
  Z.LYZ.NS: −0.164
  repSSMD.LYZ.NS: −0.204
[3]; 0.08 uM
  Dose.FC.LYZ.NS: 0.031 log2 fold change
  Z.LYZ.NS: 0.248
  repSSMD.LYZ.NS: 0.366
[3]; […]
  Dose.FC.LYZ.NS: −0.160 log2 fold change
[4]; 0.02 uM
  Dose.FC.LYZ.S: −0.319 log2 fold change
  Z.LYZ.S: −2.445
  repSSMD.LYZ.S: −3.825
[4]; 0.04 uM
  Dose.FC.LYZ.S: −0.014 log2 fold change
  Z.LYZ.S: −0.108
  repSSMD.LYZ.S: −0.157
[4]; 0.08 uM
  Dose.FC.LYZ.S: 0.005 log2 fold change
  Z.LYZ.S: 0.041
  repSSMD.LYZ.S: 0.069
[4]; […]
  Dose.FC.LYZ.S: −0.217 log2 fold change
[5]; 0.02 uM
  Dose.FC.CTG: −0.117 log2 fold change
  Z.CTG: −1.054
  repSSMD.CTG: −0.787
[5]; 0.04 uM
  Dose.FC.CTG: 0.122 log2 fold change
  Z.CTG: 1.101
  repSSMD.CTG: 0.922
[5]; 0.08 uM
  Dose.FC.CTG: 0.166 log2 fold change
  Z.CTG: 1.494
  repSSMD.CTG: 1.047
[5]; […]
  Dose.FC.CTG: −0.088 log2 fold change
[6]; primary screen, dose 0.08 uM
  Dose.FC.CTG: 0.095 log2 fold change
[6]; primary screen, dose 0.40 uM
  Dose.FC.CTG: −0.025 log2 fold change
[6]; primary screen, dose 2.00 uM
  Dose.FC.CTG: 0.127 log2 fold change
[6]; primary screen, dose 10.00 uM
  Dose.FC.CTG: −0.175 log2 fold change
[6]; [15]
  Z.CTG: 0.228
[6]; [16]
  Z.CTG: −0.060
[6]; [17]
  Z.CTG: 0.304
[6]; [18]
  Z.CTG: −0.418
